In data set [1] the test system is Balb/c mice. The data set is described as follows: In-vivo bioluminescent imaging of LNP compositions (Example 6). The following applies: mRNA dose 5 μg FLUC + 5 μg EPO; for Bioluminescence (IV) Liver / Bioluminescence (IV) Lung / Bioluminescence (IV) Spleen / Bioluminescence (IV) Whole Body: 4-6 hours post-dose; for Spleen: Liver Ratio: intravenous.
Data set [2] in a line: mRNA encapsulation efficiency, Quant-iT RiboGreen RNA Assay. The class given is physicochemical. The following applies: LNP with FLUC/EPO 1:1 mRNA. On the procedure:
(§1) For each LNP composition, the lipid mix and mRNA solution were mixed at a 1:3 ratio by volume, respectively, on a NanoAssemblr Ignite (Precision Nanosystems) at a total flow rate of 9 mL/min. The resulting compositions were then loaded into Slide-A-Lyzer G2 dialysis cassettes (10 k MWCO) and dialyzed in 200 times sample volume of 1×PBS for 2 hours at room temperature with gentle stirring. The PBS was refreshed, and the compositions were further dialyzed for at least 14 hours at 4° C. with gentle stirring. The dialyzed compositions were then collected and concentrated by centrifugation at 3000×g using Amicon Ultra centrifugation filters (100 k MWCO). The concentrated particles were characterized for size, polydispersity, and particle concentration using Zetasizer Ultra (Malvern Panalytical) and for mRNA encapsulation efficiency using Quant-iT RiboGreen RNA Assay Kit (ThermoFisher Scientific).

For data set [3], the system named is Balb/c mice. Nature of the data set: EPO levels in plasma, EPO MSD kit (Example 6). The settings on record: mRNA dose 5 μg FLUC + 5 μg EPO, intravenous. The class given is in vivo.
The nature of data set [4]: LNP size and polydispersity, Zetasizer Ultra. The class given is physicochemical. The settings on record: LNP with FLUC/EPO 1:1 mRNA. On the procedure: as §1
Data set [5] is described as follows: Apparent LNP pKa, TNS assay. The class given is physicochemical. The following applies: LNP with FLUC/EPO 1:1 mRNA. The procedure:
For pKa measurement, a […] assay was conducted according to those described in Sabnis et al., Molecular Therapy, 26(6):1509-19), which is incorporated herein by reference in its entirety. Briefly, 20 buffers (10 mM sodium phosphate, 10 mM sodium borate, 10 mM sodium citrate, and 150 mM sodium chloride, in distilled Water) of unique pH values ranging from 3.0-12.0 were prepared using 1M sodium hydroxide and 1M hydrochloric acid. 3.25 μL of a LNP composition (0.04 mg/mL mRNA, in PBS) was incubated with 2 μL of TNS reagent (0.3 mM, in DMSO) and 90 μL of buffer for each pH value (described above) in a 96-well black-walled plate. Each pH condition was performed in triplicate wells. The TNS fluorescence was measured using a Biotek Cytation Plate reader at excitation/emission wavelengths of 321/445 nm. The fluorescence values were then plotted and fit using a 4-parameter sigmoid curve. From the fit, the pH value yielding the half-maximal fluorescence was calculated and reported as the apparent LNP pKa value.

SMILES strings stand for the structures.

For the molecule `CCCCCCC(CCCCCC)CCCOC(=O)CCCCCCCN(CCCCCCCC(=O)OCCCC(CCCCCC)CCCCCC)CCCCN(C)C` [Compound 2130, bis(4-hexyldecyl) 8,8′-((4-(dimethylamino)butyl)azanediyl) dioctanoate], in the data set with Balb/c mice [1], the “Bioluminescence (IV) Liver” value turned out to be 7.0E + 04, the “Bioluminescence (IV) Lung” value stood at 1.4E + 05, the “Bioluminescence (IV) Spleen” value is given as 3.0E + 03 and the “Bioluminescence (IV) Whole Body” value was determined as 1.2E + 04. The “Spleen: Liver Ratio” value with Balb/c mice [1] turned out to be 0.045. Also, the “% EE” value in data set [2] was found to be 98.5%. Besides, the hEPO with Balb/c mice [3] is recorded as 1.5E + 02. Also, in data set [4], the PDI worked out at 0.13 and the “Size (nm)” value is reported as 68.7 nm.

Turning to `CCCCCCC(CCCCCC)CCCOC(=O)CCCCCCCN(CCCCCCCC(=O)OCCCC(CCCCCC)CCCCCC)CCOCCOCCN(C)C` [Compound 2145, 4-hexyldecyl 11-(8-((4-hexyldecyl)oxy)-8-oxooctyl)-2-methyl-5,8-dioxa-2,11-diazanonadecan-19-oate], in the data set on Balb/c mice [1], the “Bioluminescence (IV) Liver” value is given as 1.1E + 05, the “Bioluminescence (IV) Lung” value came out at 7.2E + 04, the “Bioluminescence (IV) Spleen” value was determined as 1.2E + 03 and the “Bioluminescence (IV) Whole Body” value was 4.0E + 03. In addition, the “Spleen: Liver Ratio” value in the data set on Balb/c mice [1] came to 0.012. Besides, the “% EE” value in data set [2] is 97.6%. Also, in the data set on Balb/c mice [3], the hEPO is recorded as 8.4E + 02. In data set [4], the PDI is recorded as 0.21 and the “Size (nm)” value worked out at 95.4 nm.

For the molecule `CCCCCCC(CCCCCC)CCCOC(=O)CCCCCCCN(CCCCCCCC(=O)OCCCC(CCCCCC)CCCCCC)CCC(O)CN(C)C` (stereo not drawn) [Compound 2139, bis(4-hexyldecyl) 8.8′-((4-(dimethylamino)-3-hydroxybutyl)azanediyl) dioctanoate], in the data set with Balb/c mice [1], the “Bioluminescence (IV) Liver” value came out at 1.7E + 05, the “Bioluminescence (IV) Lung” value came to 2.2E + 05, the “Bioluminescence (IV) Spleen” value came to 1.0E + 05 and the “Bioluminescence (IV) Whole Body” value was found to be 4.1E + 04. Moreover, in the data set on Balb/c mice [1], the “Spleen: Liver Ratio” value is on record as 0.583. Besides, the “% EE” value in data set [2] stood at 98.3%. Also, the hEPO in the data set on Balb/c mice [3] was found to be 2.0E + 02. In addition, in data set [4], the PDI stood at 0.18 and the “Size (nm)” value amounted to 88.6 nm.

On to `CCCCCC(CCCCC)CCCNC(=O)CCCCCCCN(CCCCCCCC(=O)NCCCC(CCCCC)CCCCC)C(=O)CCN1CCCC1` [Compound 2241, 8-(N-(8-oxo-8-((4-pentylnonyl)amino)octyl)-3-(pyrrolidin-1-yl)propanamido)-N-(4-pentylnonyl) octanamide], for which, in the data set on Balb/c mice [1], the “Bioluminescence (IV) Liver” value was found to be 3.5E + 03, the “Bioluminescence (IV) Lung” value is listed as 5.4E + 04, the “Bioluminescence (IV) Spleen” value is reported as 7.6E + 04 and the “Bioluminescence (IV) Whole Body” value was found to be 3.1E + 04. Also, in the data set on Balb/c mice [1], the “Spleen: Liver Ratio” value is 22.241. Further, the “% EE” value in data set [2] stood at 94.7%. Also, the hEPO with Balb/c mice [3] stood at 1.6E + 03. Also, in data set [4], the PDI is listed as 0.15 and the “Size (nm)” value turned out to be 100.89 nm.

Take `CCCCCCCCC(CCCCCC)C(=O)OCCCCCCN(CCCCCCOC(=O)C(CCCCCC)CCCCCCCC)CCC(O)CN(C)C` (stereo not drawn) [Compound 2225, ((4-(dimethylamino)-3-hydroxybutyl)azanediyl) bis(hexane-6,1-diyl) bis(2-hexyldecanoate)]: in the data set with Balb/c mice [1], the “Bioluminescence (IV) Liver” value turned out to be 1.8E + 05, the “Bioluminescence (IV) Lung” value was determined as 1.0E + 04, the “Bioluminescence (IV) Spleen” value is 2.2E + 05 and the “Bioluminescence (IV) Whole Body” value turned out to be 3.5E + 05. Further, the “Spleen: Liver Ratio” value in the data set on Balb/c mice [1] turned out to be 1.261. Besides, in data set [2], the “% EE” value was 97.9%. In addition, in data set [4], the PDI is on record as 0.07 and the “Size (nm)” value is 81.88 nm. Also, the “pKa (TNS)” value in data set [5] came out at 7.25.
